Patent publication US20120213707A1, “Riboflavin Based Aerosol and Use as Placebo in Trials” (MPEX PHARMACEUTICALS, INC., priority 2009, published 2012)
Where two headings read alike, the source gives them in different places.

Tests used:
Sprague-Dawley rats = assay: 28-day aerosolized liquid inhalation (nose-only) toxicity study in Sprague-Dawley rats; assay type: in vivo
From the text: (§1) The objective of the study was to determine the toxicity and toxicokinetic profile of the test article, riboflavin 5′-phosphate, following inhalation (nose-only) administration to rats for 28 consecutive days.
Test Article: riboflavin 5′-phosphate sodium salt hydrate; alternate identity: vitamin B2 phosphate; description: yellow crystals; potency: 74%. Vehicle article: saline (0.9% (w/v) NaCl for injection); description: clear colorless solution. Test system: rat (rattus norvegicus); strain: Sprague-Dawley Crl:CD (SD).
(§2) The test (0.5 mg/mL, 2.0 mg/mL, 5.0 mg/mL) and/or vehicle control formulations (0 mg/mL) for each group were prepared fresh daily on each day by dissolving the test article in saline. All prepared test article formulations were protected from light and kept at room temperature (RT).
(§3) Treatment: Daily inhalation by nose-only exposure for 60 minutes. Duration of treatment: 28 Days.
(§4) The aerosol was produced by metering the flow of the test article or vehicle formulations to 3 clinical nebulizers (Sidestream) connected to high velocity airstreams (10 L/min to each nebuliser). The aerosol produced was discharged through a 40 mm diameter tube into a flow-past inhalation exposure system. The airflow rate through the exposure system was monitored and recorded manually during the aerosol generation. Airflow to the exposure system was controlled by the absolute volume of air supplying the aerosol generators using variable area flow meters.
(§5) Assessments of mortality, clinical signs, body weights, food consumption, ophthalmology, functional observation battery and clinical chemistry, hematology, coagulation and urinalysis were performed. Plasma prepared from blood samples were collected from designated animals on the first and last days of the study and analyzed for Riboflavin 5′-phosphate content and toxicokinetic evaluation. All toxicology (main study) animals were euthanized upon completion of the 28-day treatment period and selected tissues were retained, weighed and examined microscopically. Toxicokinetic animals were euthanized following completion of blood sampling and were not subjected to necropsy examination or tissue collection. The following tables summarize tests, methods, and abbreviations used in hematology tests (Table 3), coagulation tests (Table 4), clinical chemistry tests (Table 5), and urinalysis (Table 6).

[1] = assay type: in vivo, rat (rattus norvegicus)
Description: as §1, §3, §5

[2] = Aerosol particle size distribution, rat nose-only exposure system (7-Stage Mercer Cascade Impactor); assay type: physicochemical
From the text: as §4
(§6) Determinations of aerosol concentration, particle size distribution, oxygen concentration, relative humidity and temperature was performed on test atmosphere samples collected from a representative port of the exposure system, with a collection sample flow-rate of 1 L/min. The sample flow rates were precisely controlled using variable area flow meters that were calibrated using a primary airflow calibrator before use. The absolute volume of each aerosol concentration sample was measured using a wet type gas meter.
The distribution of particle size in the generated aerosols for Groups 2 to 4 was measured weekly during the treatment period by collecting samples into a 7-Stage Mercer Cascade Impactor and the sample substrates obtained were transferred to the analytical chemistry laboratory of ITR Laboratories Canada Inc. for the chemical determination of the particle size of the aerosolized Riboflavin 5′-phosphate using a validated analytical method (ITR Study No. 40241). The distribution of particle size in the generated aerosols for Group 1 was estimated once weekly by gravimetric determination. The mass median aerodynamic diameter (MMAD) and the Geometric Standard Deviation (GSD) were calculated based on the results obtained from the impactor using a log-probit transformation.

[3] = Stability of dosing formulations in saline; assay type: physicochemical; conditions: saline formulations 0.5-5.0 mg/mL, refrigerated at least 48 hours or room temperature on day of preparation
Description: as §2
Analyses determined that all formulations were within acceptance criteria ranges (±10%). The formulation concentrations ranged between 94.4 and 106.4% of nominal concentrations and therefore considered acceptable.
Analyses determined that all formulations were within acceptance criteria ranges (±10%). The formulation concentrations ranged between 94.9 and 104.5% of nominal concentrations and were therefore considered acceptable. […]

[4] = Aerosol particle size distribution, dog oronasal exposure system (7-Stage Mercer Cascade Impactor); assay type: physicochemical
From the text: The aerosol was produced by metering the flow of the test and control article formulations to 3 clinical nebulizers (Sidestream). The aerosol produced was discharged through a 40 mm diameter tube into a flow-past inhalation exposure system. The airflow rate through the exposure system was monitored and recorded manually during the aerosol generation. Airflow to the exposure system was controlled by the absolute volume of air supplying the aerosol generators using variable area flow meters. Control of the aerosol exhaust flow from the animal exposure system was achieved using an exhaust valve. The system provided a minimum of 6 L/min of aerosol to each animal exposure position and the inlet and outlet airflows were balanced to ensure that there was no dilution of the generated aerosol by air drawn from the environment. Any minor variations in flow were buffered by a balloon reservoir. An equal delivery of aerosol to each exposure position was achieved by employing a distribution network that was identical for each individual exposure position attached to the system.
as §6, with “temperature were” for “temperature was”, “calibrated before use” for “calibrated”, “airflow calibrator.” for “airflow calibrator before use.”
The distribution of particle size in the generated aerosols for Groups 2 to 4 were measured weekly during the treatment period by collecting samples into a 7-Stage Mercer Cascade Impactor and the particle size of aerosolized Riboflavin 5′-phosphate was determined using a validated analytical. The distribution of particle size in the generated aerosols for Group 1 were estimated once weekly by gravimetric determination. The MMAD and the Geometric Standard Deviation (GSD) were calculated based on the results obtained from the impactor using a log-probit transformation.

[5] = female, Sprague-Dawley, rat, in vivo, 0.96 mg/kg/day
[6] = female, Sprague-Dawley, rat, in vivo, 2.4 mg/kg/day
[7] = male, Sprague-Dawley, rat, in vivo, 2.4 mg/kg/day
[8] = male, Sprague-Dawley, rat, in vivo, inhaled or intranasal, 0.96 mg/kg/day
[9] = Group 2 Low Dose, 0.5 mg/mL formulation
[10] = Group 3 Mid Dose, 2.0 mg/mL formulation
[11] = Group 4 High Dose, 5.0 mg/mL formulation

In the case of `Cc1cc2nc3c(=O)[nH]c(=O)nc-3n(C[C@H](O)[C@H](O)[C@H](O)COP(=O)(O)O)c2cc1C` [riboflavin 5′-phosphate], the “No Observed Effect Level (NOEL)” value (Sprague-Dawley rats; Sprague-Dawley rats, once daily inhaled, 28 consecutive days, high dose group) is reported as 2.479 mg/kg/day, the clinical chemistry (Sprague-Dawley rats; rat, in vivo) is reported as “no changes noted in any clinical chemistry parameters that were considered to be treatment-related” and the coagulation times (Sprague-Dawley rats; rat, in vivo) is reported as “unaffected by treatment”. For the same molecule, the functional observation battery (Sprague-Dawley rats; rat, in vivo) was “no changes noted in any functional observation battery parameters that were considered to be treatment-related”, the hematology (Sprague-Dawley rats; rat, in vivo) was “no changes noted in any haematology parameters that were considered to be treatment-related” and the “macroscopic findings at necropsy” value (Sprague-Dawley rats; rat, in vivo) was “no findings attributed to the test article administration”. The microscopic findings (Sprague-Dawley rats; rat, in vivo) was “no microscopic findings that were considered to be test article related”, the urinalysis (Sprague-Dawley rats; rat, in vivo) was “no changes in any of the urinalysis parameters evaluated that were considered affected by treatment” and the adverse effects (Sprague-Dawley rats; rat, in vivo, 2.4 mg/kg/day) was “no adverse effects were observed”. The mortality (Sprague-Dawley rats; rats, 0.244 mg/kg/day, considered accidental (restraint), not test article related) was “One male rat dosed at 0.244 mg/kg/day was found dead on Day 12”, the “local or systemic toxicity (histology of lymphoid and respiratory tract tissues)” value (Sprague-Dawley rats; rats, 28 days inhalation) was “no indications of local or systemic toxicity” and the tolerability (Sprague-Dawley rats; rats, nose-only inhalation, 28 consecutive days) was “well tolerated”. The “Cmax ratio (M/F)” value ([1]; both, Sprague-Dawley, rat, in vivo, 0.96 mg/kg/day) was 1.59, the “AUC ratio (M/F)” value ([1]; both, Sprague-Dawley, rat, in vivo, 2.4 mg/kg/day) was 1.24 and the “AUC ratio (M/F)” value [1, 5] was 1.25. For the same molecule, the “Cmax ratio (M/F)” value [1, 5] was 1.50, the “AUC ratio (M/F)” value [1, 6] was 0.672 and the “Cmax ratio (M/F)” value [1, 6] was 1.17. For the same molecule, the “riboflavin concentration in plasma” value ([1]; female, Sprague-Dawley, rat, in vivo, 24 h) was 0.829 µg/mL, the Tmax of riboflavin ([1]; female, Sprague-Dawley, rat, in vivo, inhaled or intranasal, 0.96 mg/kg/day) was 0.00 h and the Tmax of riboflavin ([1]; female, Sprague-Dawley, rat, in vivo, inhaled or intranasal, 2.4 mg/kg/day) was 0.00 h. For the same molecule, the “AUC ratio (M/F)” value [1, 7] was 0.433, the “Cmax ratio (M/F)” value [1, 7] was 0.801 and the “AUC(0-T) of riboflavin” value [1, 8] was 0.0159 µg·h/mL. For the same molecule, the Tmax of riboflavin [1, 8] was 0.00 h, the Tmax of riboflavin ([1]; male, Sprague-Dawley, rat, in vivo, inhaled or intranasal, 2.4 mg/kg/day) was 0.00 h and the “gender difference in riboflavin exposure” value ([1]; rat, in vivo) was “no gender difference in riboflavin exposure”. For the same molecule, the “riboflavin 5′-phosphate concentrations in plasma of treated animals” value ([1]; rat, in vivo) was “detected in only very few treated animals”, the “riboflavin concentration values, males versus females” value ([1]; rats, Day 1) was “slightly higher in males than in females” and the “% of particles <3.1 μm” value [2, 9] was 91.8%. The MMAD [2, 9] was 1.2 μm, the “% of particles <3.1 μm” value [2, 10] was 91.9% and the MMAD [2, 10] was 1.2 μm. For the same molecule, the “% of particles <3.1 μm” value [2, 11] was 87.8%, the MMAD [2, 11] was 1.2 μm and the formulation stability ([3]; dog study) was “stable”. For the same molecule, the formulation stability ([3]; rat study) was “stable”, the “% of particles <3.1 μm” value [4, 9] was 91.1% and the MMAD [4, 9] was 1.1 μm. The “% of particles <3.1 μm” value [4, 10] was 93.3%, the MMAD [4, 10] was 1.1 μm and the “% of particles <3.1 μm” value [4, 11] was 87.2%. The MMAD [4, 11] was 1.2 μm.
